What was measured:
[1] = system: GT1b replicon; experiment: HCV replicon susceptibility to antiviral agents, GT1b; type: cell-based; conditions: Hepatitis C virus, n = 2
Method: (§1) All of these HCV inhibitors, as well as any other candidate agents, can be tested with the disclosed methods for their efficacy in inhibiting HCV genotype 4d. The cells are then incubated at a suitable temperature for a period time to allow the replicons to replicate in the cells. The replicons can include a reporter gene such as luciferase and in such a case, at the end of the incubation period, the cells are assayed for luciferase activity as markers for replicon levels. Luciferase expression can be quantified using a commercial luciferase assay.
(§2) Luciferase or NS3 protease activity level is then converted into percentages relative to the levels in the controls which can be untreated or treated with an agent having known activity in inhibiting the HCV.
(§3) Another comparison was made, with respect to each replicon's susceptibility against HCV antiviral agents.

[2] = system: GT4d (34R + 232I-pool) replicon; experiment: HCV replicon susceptibility to antiviral agents, GT4d (34R + 232I-pool); type: cell-based; conditions: Hepatitis C virus, GT4d replicon with Q34R + S232I, n = 2
Method: as §1, §2
(§4) Stable GT4d subgenomic replicons were prepared to include these double mutations (FIG. 12). Ten micrograms of in vitro transcribed 4d Rluc-Neo RNA were transfected into 1C cells. G418 selection started 2 days after transfection and plates were fixed and stained after 2 weeks of G418 selection. […] The luciferase activity of these stable replicon cells of these replicons were further compared to GT4a replicons and GT1b.
as §3

[3] = system: GT 4d-Neo replicons (4d-2Re and 4d-3Re), NS3 activity; experiment: Inhibition of NS3 activity of GT 4d-Neo replicons from pooled colonies; type: cell-based, Hepatitis C virus; conditions: 4d-3Re and 4d-2Re replicon cells; FIG. 3A-B
Text: Alternately, efficacy of the HCV inhibitor can be measured by the expression or activity of the proteins encoded by the replicons. One example of such proteins is the NS3 protease, and detection of the protein expression or activity can be carried out with methods known in the art, e.g., Cheng et al., Antimicrob Agents Chemother 55:2197-205 (2011).
as §2
Two candidate HCV inhibitors, Compound A (FIG. 3A) and B (FIG. 3B) were used to test the inhibition of NS3 activities of the replicons isolated from pooled colonies (4d-2Re and 4d-3Re, see FIG. 2). […] Also observed was that NS3 activity was higher in 4d-3Re than 4d-2Re.
4000 cells/well were plated in 96-well white plates. NS3 activity was read 72 hours after plating. Values shown in FIG. 4 are mean of DMSO treated well from 3 plates.

[4] = system: GT4d (34R + 232G-pool) replicon; experiment: HCV replicon susceptibility to antiviral agents, GT4d (34R + 232G-pool); type: cell-based; conditions: Hepatitis C virus, GT4d replicon with Q34R + S232G, n = 2
Method: as §1, §2, §4, §3

[5] = system: GT4a replicon; experiment: HCV replicon susceptibility to antiviral agents, GT4a; type: cell-based; conditions: Hepatitis C virus, n = 2
Method: as §1, §2, §3

In the case of `CC(C)OC(=O)[C@H](C)NP(=O)(OC[C@H]1O[C@@H](n2ccc(=O)[nH]c2=O)[C@](C)(F)[C@@H]1O)Oc1ccccc1` (stereo partly drawn) [Compound A, isopropyl (2S)-2-[[[(2R,3R,4R,5R)-5-(2,4-dioxopyrimidin-1-yl)-4-fluoro-3-hydroxy-4-methyl-tetrahydrofuran-2-yl]methoxy-phenoxy-phosphoryl]amino]propanoate], the EC50 [1] is reported as 158 nM, the EC50 [2] is reported as 37 nM and the “inhibition of NS3 activity” value [3] is reported as “dose dependent inhibition”. It also gave an EC50 [4] of 33 nM and an EC50 [5] of 70 nM.
